The values that follow come from patent publication US7968530B2 (priority 2005, dated 2011).

Experiment [1] concerns Plasmopara viticola. As to the kind of experiment: Preventive fungicidal activity against peronospora of vines, sprayed vine leaves (Example 7). In kind it is in vivo. Particulars: 7-day preventive, vine cv. Dolcetto, scale 0 (completely infected) to 100 (healthy plant); for Activity 500 ppm: 500 ppm as equivalent phosphorous acid; for Activity 1000 ppm: 1000 ppm as equivalent phosphorous acid. As for the experimental part: Determination of the Fungicidal Activity Against Peronospora of Vines (Plasmopara viticola).
Vine leaves (cultivar Dolcetto), grown in vases in a conditioned environment (20±1° C., 70% relative humidity) are treated by spraying both sides of the leaves with compounds 1 and 2, dispersed in a hydroacetone solution at 20% by volume in acetone.
After remaining 24 hours in a conditioned environment, the plants were sprayed on both sides of the leaves with an aqueous suspension of conidia of Plasmopara viticola (20,000 conidia per cm^3).
The plants are kept in a humidity saturated environment at 21° C. for the incubation period of the fungus.
At the end of this period (7 days), the fungicidal activity is evaluated according to an evaluation percentage scale from 0 (completely infected plant) to 100 (healthy plant).

Experiment [2] relates to Phytophthora infestans. It counts as in vivo.
Experiment [3] deals with Plasmopara viticola. As to the kind of experiment: 1-day curative fungicidal activity of fungicidal mixtures against peronospora of vines (Example 10). In kind it is in vivo.
Method: Leaves of vines (cultivar Dolcetto), grown in vases in a conditioned environment (20±1° C.), 70% relative humidity) were infected with an aqueous suspension of spores of Plasmopara viticola (200,000 conidia per cm^3).
(§1) After remaining 24 hours in a conditioned environment, both sides of the leaves were sprayed with the fungicidal mixtures under examination dissolved in a hydroacetone solution at 20% of acetone (vol./vol.).
After drying, the plants were transferred for the incubation period of the fungus (6 days) to a conditioned at 70% relative humidity and 24° C.
For experiment [4], the system named is Plasmopara tabacina. Put plainly: 1-day curative fungicidal activity of fungicidal mixtures against peronospora of tobacco (Example 11). It counts as in vivo.
Method: Determination of the Fungicidal Activity of Fungicidal Mixtures Against Peronospora of Tobacco (Plasmopara tabacina).
Leaves of tobacco plants (cultivar Barley), grown in vases in a conditioned environment (20±1° C.), 70% relative humidity) were infected with an aqueous solution of spores of Plasmopara tabacina (200,000 conidia per cm^3).
as §1
After drying, the plants were transferred for the incubation period of the fungus (6 days) to a conditioned environment at 70% relative humidity and 24° C.
The subject of experiment [5] is Phytophthora infestans. Particulars: 1-day curative, potato Primura, scale 100 healthy to 0 infected.
Where [6] appears, read: 1575 ppm as equivalent phosphorous acid.
Where [7] appears, read: compound alone at 1575 ppm as equivalent phosphorous acid, 1-day curative, potato, scale 0-100.

Where two headings read alike, the source gives them in different places.

`C[N+](C)(C)CCO.[Cl-]` [Choline chloride]: in experiment [1], the “Activity 500 ppm” value came out at 35. Moreover, the “Activity 1000 ppm” value in experiment [1] is 57. Moreover, the “Activity (y)” value in experiment [2] (compound alone at 2730 ppm, 1-day curative, potato, scale 0-100) was 20; in experiment [3] (compound alone at 2047 ppm, 1-day curative, vine, scale 0-100), 20; in experiment [4] (compound alone at 2047 ppm, 1-day curative, tobacco, scale 0-100), 10. The Activity in experiment [5] (2690 ppm (quantity of choline contained in Compound No 2)) was 15 (2690 ppm*).
Take `O=[PH]([O-])[O-].[K+].[K+]` [Compound K2HPO3, K2HPO3, reference compound]: in experiment [1], the “Activity 500 ppm” value is recorded as 45 and the “Activity 1000 ppm” value was found to be 80. For the same compound, the Activity in experiment [5] (setting [6]) is on record as 40 (1575 ppm**).
With `CN(C)CCCO` [3-dimethylamine-1-propanol], in experiment [2] (in vivo), the “Activity (y)” value came out at 25.
On to `C[N+](C)(C)CCO.O=C([O-])O` [Choline bicarbonate], for which, in experiment [1], the “Activity 500 ppm” value was 75 and the “Activity 1000 ppm” value is given as 84.
As for Neutral Choline Phosphite [Compound 1], in experiment [1], the “Activity 500 ppm” value is 90 and the “Activity 1000 ppm” value is on record as 100. In addition, in experiment [2] (setting [7]), the “Activity (y)” value stood at 65.
On to Acid Choline Phosphite [Compound 2], for which, in experiment [1], the “Activity 500 ppm” value was 85 and the “Activity 1000 ppm” value turned out to be 95. Also, the “Activity (y)” value in experiment [2] (setting [7]) came out at 65. In addition, the Activity in experiment [5] (setting [6]) is on record as 65 (1575 ppm**). In addition, in experiment [5] (1575 ppm as equivalent phosphorous acid, […]), the Activity came out at 65.
For `CN(C)CCO` [N,N-dimethylethanolamine], the “Activity (y)” value is 30 in experiment [2] (in vivo), 25 in experiment [3] (in vivo) and 5 in experiment [4] (in vivo).
